# Assay results published in patent publication US10640748B2, “Oligodendroglial cell culturing methods and in methods for treating neurodegenerative disorders by using thyroid hormones or analogues” (NeuOrphan Pty Ltd, priority 2014, dated 2020).
# Legend:
# [1] = system: H9-derived hOPCs (Merck/Millipore); assay: Microarray analysis of H9-derived hOPC mixed neural cultures treated with DITPA; assay type: cell-based, human; conditions: 48 hours
# Description: H9-derived hOPCs (Merck/Millipore) were differentiated for 4 weeks and the following treatments were administered to the cells for 48 hours: Medium with 0.01% absolute ethanol control; 1 ng/mL DITPA (DITPA 1 ng/mL); 10 ng/mL DITPA (DITPA 10 ng/mL); or 100 ng/mL DITPA (DITPA 100 ng/mL). 1 μg of collected mRNA from each population was hybridized to Human HT-12 v3.0 Gene Expression BeadChip (Illumina) according to the manufacturer's instruction (For detailed procedure see Supplemental Experimental Procedures).
# H9-derived commercially available human neural precursors were cultured and differentiated according to the manufacturer's protocol (Human OPC differentiation kit, Millipore). Briefly, undifferentiated cells were maintained on 4% growth factor-reduced Matrigel (BD Biosciences) for a week in manufacturer provided expansion medium then differentiated on poly-L-ornithine (10 μg/mL, Sigma-Aldrich) and mouse laminin (10 μg/mL, Life Technologies) coated plates for 4 weeks in manufacturer provided medium.
# Raw signal intensity values were subjected to variance stabilization transformation including background correction, log2 transformation and variance stabilization using the lumiR package of R Bioconductor (Du et al., 2008). Since there were fewer arrays of common genes detected in DITPA 100 ng/mL compared to DITPA 1 ng/mL and 10 ng/mL versus ethanol control, all analyses were performed without DITPA 100 ng/mL. Hierarchical clustering with centroid linkage clustering was performed. ANOVA analyses of normalized probe intensity values were performed in Partek Genomic Suite (Partek). ANOVA was used to calculate the significance of variation in normalized expression values between sample-groups, and fold change of gene expression was calculated as mean ratio. Absolute fold changes of 1.5 or more were defined as differentially expressed. Gene ontology enrichment analysis was performed on the list of differentially expressed probes in Partek.
# [2] = system: Pre-OLs from Nkx2.1-GFP+ sorted cultures at stage VI, day 21; assay: MTT-based cytotoxicity assay under Bosutinib MCT8 blockade; assay type: cell-based, human; conditions: Bosutinib with 10 ng/mL DITPA, 48 hours
# Description: Pre-OLs from Nkx2.1-GFP+ sorted cultures at stage VI, day 21 were treated with the pharmacological inhibitor of MCT8, bosutinib (LC Laboratories, B-1788, reconstituted in dimethyl sulfoxide, [DMSO]) at different concentrations (1 ng/mL, 10 ng/mL and 100 ng/mL) with co-administration of 10 ng/mL DITPA. An MTT assay and flow cytometry were then performed on the cells stained for DAPI after 48 hours of treatment, to analyze DAPI+ dead cells.
# [3] = cited from earlier work
# [4] = 1 and 10 ng/mL, vs ethanol control
smiles,measurement,setting,value
"O=C(O)CCc1cc(I)c(Oc2ccc(O)cc2)c(I)c1 [DITPA, 3,5-Diiodothyropropionic acid]",ASCL1 expression (oligodendroglial enriched transcription factor),[1]; [4],up-regulation
same,CRYM (μ-crystallin) expression,[1]; [4],down-regulation
same,DIO3OS expression,[1]; [4],up-regulation
same,DIO3 expression,[1]; [4],up-regulation
same,MYT1 expression (oligodendroglial enriched transcription factor),[1]; [4],up-regulation
same,RARA expression,[1]; [4],up-regulation
same,RARRES3 expression,[1]; [4],down-regulation
same,astrocyte and neuron enriched transcription factors regulated,[1]; [4],minimal
same,thrb expression,[1]; [4],up-regulation
same,commonly regulated genes,[1]; DITPA at 1 ng/mL and 10 ng/mL vs ethanol control,3385
same,up-regulation of metallothionein (MT1A),[1]; upon DITPA treatment,~8 fold
same,up-regulation of p53,[1]; upon DITPA treatment,~2 fold
same,up-regulation of reprimo (RPRM),[1]; upon DITPA treatment,~13 fold
same,survival rates (MTT assay),[2],increased survival rates
same,solubility in water and aqueous solutions,[3],sparingly soluble
